Patent US10870638B2, “Pyridazinone compound or its salt, and herbicide containing it” (ISHIHARA SANGYO KAISHA, LTD., priority 2016, dated 2020)

Legend:
Format in all cases: in vivo
Conditions in all cases: active ingredient amount 31 g/ha, 14th day after application
[1] = tested on: green foxtail (Setaria viridis L.); experiment: Test Example 1: foliar treatment, growth inhibition rate on 14th day
Outline: (§1)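 Compounds applied once to leaves of pot-grown plants; wild oat at 0.4–1.2 leaf, foxtail 0.5–3.2, rice 0.2–2.7, soybean primary leaf. Inhibition estimated by eye on day 14.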

[2] = tested on: wheat (Triticum aestivum L.); experiment: as above
Outline: (§2)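 Using a small sprayer, formulated compound in water (0.1 vol % surfactant, 1,000 L/ha) was applied to seedlings grown from seed in upland soil. Fourteen days on, growth state was observed and expressed as percent inhibition from 0 to 100.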

corn (Zea mays L.) [3] = experiment: as above
Outline: as §2

[4] = tested on: barnyardgrass (Echinochloa crus-qalli L.); experiment: as above
Outline: as §2

[5] = tested on: italian ryegrass (Lolium multiflorum Lam.); experiment: as above
Outline: as §2

[6] = tested on: wild oat (Avena fatua L.); experiment: as above
Outline: as §1

[7] = tested on: crabgrass (Digitaria sanquinalis L.); experiment: as above
Outline: as §2

[8] = tested on: redroot pigweed (Amaranthus retroflexus L.); experiment: as above
Outline: as §2

rice (Oryza sativa L.) [9] = experiment: as above
Outline: as §1

[10] = tested on: soybean (Glycine max Merr.); experiment: as above
Outline: as §1

[11] = tested on: green foxtail (Setaria viridis L.); experiment: Test Example 2: soil application on the day after sowing, growth inhibition rate on 14th day
From the text: (§3) Upland field soil was put into a 1/300,000 hectare pot, and seeds of various plants (barnyardgrass (Echinochloa crus-qalli L.), crabgrass (Digitaris sanquinalis L.), green foxtail (Setaria viridis L.), redroot pigweed (Amaranthus retroflexus L.), prickly sida (Sida spinosa L.), velvetleaf (Abutilon theophrasti MEDIC.), rice (Oryza sativa L.), corn (Zea mays L.), wheat (Triticum aestivum L.), soybean (Glycine max Merr.)) were sown. On the day after sowing, wettable powders or emulsifiable concentrates of the compounds of the present invention prepared in accordance with a conventional preparation method, were weighed so as to achieve the prescribed active ingredient amounts, and diluted with water in an amount corresponding to 1,000 liters per 1 hectare, followed by soil application by a small sprayer.
(§4) On the 14th day after the application, the state of growth of the respective plants was visually observed, and the herbicidal effect was evaluated by a growth inhibition rate (%) of 0 (equivalent to the non-treated area) to 100 (complete kill).

[12] = tested on: wheat (Triticum aestivum L.); experiment: as above
From the text: as §3, §4

[13] = tested on: crabgrass (Digitaris sanquinalis L.); experiment: as above
From the text: as §3, §4

[14] = tested on: velvetleaf (Abutilon theophrasti MEDIC.); experiment: as above
From the text: as §3, §4

corn (Zea mays L.) [15] = experiment: as above
From the text: as §3, §4

[16] = tested on: barnyardgrass (Echinochloa crus-qalli L.); experiment: as above
From the text: as §3, §4

rice (Oryza sativa L.) [17] = experiment: as above
From the text: as §3, §4

[18] = tested on: soybean (Glycine max Merr.); experiment: as above
From the text: as §3, §4

[19] = visual, 0 = non-treated, 100 = complete kill

SMILES	Growth inhibition rate (%) Green foxtail [1]	Growth inhibition rate (%) Wheat [2]	Growth inhibition rate (%) Corn (corn (Zea mays L.) [3])	Growth inhibition rate (%) Barnyardgrass [4]	Growth inhibition rate (%) Italian ryegrass [5]	Growth inhibition rate (%) Wild oat [6]	Growth inhibition rate (%) Crabgrass [7]	Growth inhibition rate (%) Redroot pigweed [8]	Growth inhibition rate (%) Rice (rice (Oryza sativa L.) [9])	Growth inhibition rate (%) Soybean [10]	Growth inhibition rate (%) Green foxtail [1, 19]	Growth inhibition rate (%) Wheat [2, 19]	Growth inhibition rate (%) Corn (corn (Zea mays L.) [3]; [19])	Growth inhibition rate (%) Barnyardgrass [4, 19]	Growth inhibition rate (%) Italian ryegrass [5, 19]	Growth inhibition rate (%) Wild oat [6, 19]	Growth inhibition rate (%) Crabgrass [7, 19]	Growth inhibition rate (%) Redroot pigweed [8, 19]	Growth inhibition rate (%) Rice (rice (Oryza sativa L.) [9]; [19])	Growth inhibition rate (%) Soybean [10, 19]	other results
CC(=O)Oc1c(C)nn(C)c(=O)c1-c1cc(Oc2ncc(C(F)(F)F)cc2Br)ccc1C [Compound 2-115]	98%	83%	98%	100%	98%	100%	95%	20%	78%	0%											
Cc1ccc(Oc2cnc3cc(Cl)ccc3n2)cc1-c1c(OC(=O)OC(C)C)c(C)nn(C)c1=O [Compound 3-60]											100%	93%	20%	99%	95%	98%	95%	0%	10%	10%	
Cc1ccc(Oc2nc3ccc(Cl)cc3o2)cc1-c1c(O)cnn(CC(F)F)c1=O [Compound 2-179]	100%	10%	75%	88%	0%	0%	98%	0%	0%	0%											
CCc1ccc(Oc2nc3cc(Cl)ccc3o2)cc1-c1c(O)c(C)nn(C)c1=O [Compound 2-162]	99%	99%	90%	100%	100%	100%	100%	10%	100%	0%											Growth inhibition rate (%) Green foxtail [11]: 20%; Growth inhibition rate (%) Wheat [12]: 20%; Growth inhibition rate (%) Crabgrass [13]: 20%; Growth inhibition rate (%) Velvetleaf [14]: 0%; Growth inhibition rate (%) Corn (corn (Zea mays L.) [15]): 0%; Growth inhibition rate (%) Barnyardgrass [16]: 90%; Growth inhibition rate (%) Rice (rice (Oryza sativa L.) [17]): 0%; Growth inhibition rate (%) Soybean [18]: 0%
CCCSC(=O)Oc1c(C)nn(C)c(=O)c1-c1cc(Oc2cnc3cc(Cl)ccc3n2)ccc1C [Compound 3-56]											100%	93%	40%	98%	98%	99%	99%	0%	0%	30%	
